Tested on: bacterial strains
Assay: Potentiation/synergy antimicrobial assay (checkerboard, FICI) with antibiotics
Format: cell-based
Details: for MIC of antibiotic with 6442 at concn 0: 6442 0 μg/mL; for MIC of antibiotic with 8980 at conc 0: 8980 0 μg/mL; for MIC of antibiotic with 8980 at conc 1: 8980 1 μg/mL; for MIC of antibiotic with 8981 at conc 0: 8981 0 μg/mL; for MIC of antibiotic with 8981 at conc 1: 8981 1 μg/mL; for MIC of antibiotic with 8981 at conc 2: 8981 2 μg/mL; for MIC of antibiotic with 8981 at conc 4: 8981 4 μg/mL; for MIC of antibiotic with OctC4 at concn 0: OctC4 0 μg/mL
Description: Potentiation/synergy antimicrobial assays were conducted in the same manner as the standard MICs described above, with the following modifications. Assays were performed in 384-well non-binding surface plates (NBS; Corning 3460) and in Cation-adjusted Mueller Hinton Broth (CA-MHB; BD, Cat. No. 212322) with a final assay volume of 50 μL once bacteria was added at 5×10^5 CFU/mL. Antibiotics and octapeptin compounds were plated in duplicate as a 2-fold concentration series, in a matrix checkerboard format. The bacterial cell density of the resultant assay plates after 18-20 h incubation at 37° C. was read by optical density 600 nm (OD600) using a Tecan M1000 Pro Spectrophotometer, and analysed for ≥90% growth inhibition compared to the growth control to determine active concentrations. Synergistic effect was calculated based on the fractional inhibitory concentration index (FICI) by the following equation, where synergy is deemed FICI 0.5: […]

CO[C@H]1/C=C/O[C@@]2(C)Oc3c(C)c(O)c4c(O)c(c(/C=N/N5CCN(C)CC5)c(O)c4c3C2=O)NC(=O)/C(C)=C\C=C\[C@H](C)[C@H](O)[C@@H](C)[C@@H](O)[C@@H](C)[C@H](OC(C)=O)[C@@H]1C [Rifampicin, rifampicin]
8 to 16 µg/mL: MIC of antibiotic with 8981 at conc 4 (GN_102 K. pneumoniae XDR/PmxR)
0.25 µg/mL: MIC of antibiotic with 6442 at concn 0.25 (GN_181 E. coli mcr-1, 6442 0.25 μg/mL)
16 to 32 µg/mL: MIC of antibiotic with 8981 at conc 1 (GN_102 K. pneumoniae XDR/PmxR)
16 µg/mL: MIC of antibiotic with 6442 at concn 0.125 (GN_102 K. pneumoniae XDR/PmxR, 6442 0.125 μg/mL) | MIC of antibiotic with 8980 at conc 1 (GN_102 K. pneumoniae XDR/PmxR) | MIC of antibiotic with 8981 at conc 2 (GN_102 K. pneumoniae XDR/PmxR)
32 µg/mL: MIC of antibiotic with 6442 at concn 0 (GN_102 K. pneumoniae XDR/PmxR) | MIC of antibiotic with 8980 at conc 0 (GN_102 K. pneumoniae XDR/PmxR) | MIC of antibiotic with 8981 at conc 0 (GN_102 K. pneumoniae XDR/PmxR) | MIC of antibiotic with OctC4 at concn 0 (GN_102 K. pneumoniae XDR/PmxR) | MIC of antibiotic with OctC4 at concn 0.0625 (GN_102 K. pneumoniae XDR/PmxR, OctC4 0.0625 μg/mL) | MIC of antibiotic with OctC4 at concn 0.125 (GN_102 K. pneumoniae XDR/PmxR, OctC4 0.125 μg/mL) | MIC of antibiotic with 6442 at concn 0 (GN_181 E. coli mcr-1) | MIC of antibiotic with 8980 at conc 0 (GN_181 E. coli mcr-1) | MIC of antibiotic with 8980 at conc 1 (GN_181 E. coli mcr-1) | MIC of antibiotic with 8980 at conc 2 (GN_181 E. coli mcr-1, 8980 2 μg/mL) | MIC of antibiotic with 8980 at conc 4 (GN_181 E. coli mcr-1, 8980 4 μg/mL) | MIC of antibiotic with 8981 at conc 0 (GN_181 E. coli mcr-1) | MIC of antibiotic with 8981 at conc 1 (GN_181 E. coli mcr-1) | MIC of antibiotic with 8981 at conc 2 (GN_181 E. coli mcr-1) | MIC of antibiotic with 8981 at conc 4 (GN_181 E. coli mcr-1) | MIC of antibiotic with OctC4 at concn 0 (GN_181 E. coli mcr-1)
